Measured values taken from US10287294B2, “Compounds for use in treating or preventing cancerous diseases” (BIOMEDICAL RESEARCH FOUNDATION OF THE ACADEMY OF ATHENS, priority 2015, dated 2019).

How the values were obtained:
[1] = test system: human prostate cancer xenografts; conditions: two weeks in vivo treatment with 20 or 30 mg/kg; cited from earlier work
[2] = test system: pancreatic ductal adenocarcinoma (PDA); assay: Micro PET/CT imaging of Pdx1-Cre/KRAS*A mouse treated with Amy22; type: in vivo
Description: PET/CT images were acquired of a Pdx1-Cre/KRAS*A mouse at the beginning and end of treatment (one month) of pancreatic ductal adenocarcinoma (PDA) with the Amy22 compound (cf. FIG. 4; a representative out of three independent experiments is shown). Dosing solutions of 20 mg/ml Amy22 in 0.5% carboxymethyl cellulose (CMC) were used for daily administration per os (0.15 ml per animal, dose 150 mg/kg) for 30 days. The diminished uptake of ^18F-FDG by remnants of PDA is evident and measured by the standardized uptake values (SUV values) that were 2.87 at the beginning and 1.5 at the end of the treatment. The white arrows indicate the anatomical sites of pancreata. High-level concentration of ^18F-FDG in the urinary bladder (excretion of the tracer) and also in the heart (yellow arrows) is noted.

[3] = test system: human pancreatic ductal adenocarcinoma cell line MiaPaCa2 xenografts; assay: Amy22 treatment of MiaPaCa2 xenografts in NOD/SCID mice; type: in vivo; conditions: Amy22 150 mg/kg for two weeks
Description: For transplantation, eight-week old NOD/SCID mice were anesthetized using a steady flow of a mixture of isofluorane gas (4%) and oxygen and inoculated subcutaneously into their lateral flanks with 10^6 cancer cells and monitored daily until the tumors became palpable (tumor volume ˜100 mm^3). The mice were then divided randomly into two groups for Amy22 (150 mg/kg) or vehicle administration for a period of two weeks. Average weights±S.E.M (n=4 in each case) are indicated (p<0.001 and <0.05 for MiaPaCa2 and MMTV-Myc, respectively). […] FIG. 3 illustrates the gross appearance of surgically recovered Amy22-treated or untreated (control) xenografts.

H015.19 cells = assay: MTT cell viability assay, H015.19 cells (Myc-/-); type: cell-based, rat; conditions: Rattus norvegicus, 72 h, Myc-/- cells
Description: (§1) To evaluate the in vitro activity of the compound having the formula (II) (Amy22), the sibling cell lines TGR-1 and H015.19 were used. The TGR-1 cells are a subclone of the Rat-1 fibroblastic cell line with intact Myc (Myc^+/+), whereas the H015.19 cells are Myc^−/− derivatives of the TGR-1 cells (Mateyak et al., 1997). The two sibling cell lines thus differ only in the presence or absence of Myc, thereby allowing to determine not only the activity of the tested compound in Myc-positive cancer cells, but also in cells not expressing Myc offering an indication of the specificity of the tested compound.
(§2) The TGR-1 and H015.19 cells were grown in DMEM supplemented with 10% FBS. Equal numbers of cells were seeded in multiple wells of 24-well plates at low density (<20% confluence at day 0), and either DMSO or DMSO-dissolved Amy22 (various concentrations) was added to the medium (final concentration of DMSO: 0.1%). Cell viability (sextuplicates) was measured on day 3 by using a standard MTT (Thiazolyl Blue Tetrazolium Bromide) colorimetric assay (Mosmann, 1983). Half-maximal inhibitory concentrations (IC50) were determined using a log it-log plot and linear regression of the data (SigmaPlot software; Systat Software, Inc., San Jose, Calif., USA), as shown in FIG. 1 and Table 1. The measured data were plotted on the log it-log plot for linear regression of cell viability data (average values from 5 independent experiments in each case), in order to calculate the Amy22 IC50 for the sibling cell lines that differ only in the presence or absence of Myc (TGR-1 and H015.19 cells, respectively). The IC50 for H015.19 cells was calculated by extrapolation.

[4] = MTT cell viability assay, H015.19 cells (Myc-/-); type: cell-based, rat; conditions: rat, H015.19 cells (Myc-/- derivatives of TGR-1), day 3, MTT, average ± S.E.M
Description: as §1, §2

TGR-1 cells = assay: MTT cell viability assay, TGR-1 cells (Myc+/+); type: cell-based; conditions: Rattus norvegicus, TGR1, 72 h; for IC50: Myc+/+ cells, MTT day 3, logit-log linear regression
Description: as §1, §2

[5] = Blood concentrations of Amy22 after oral gavage to mice (LC-MS/MS, non-compartmental analysis); type: in vivo, mouse
Description: Animals at the age of 10 weeks were fasted overnight and weighed before dosing (average weight=21.6 g, n=6 male C57BL/6N). Dosing solutions of 20 mg/ml Amy22 in 0.5% carboxymethyl cellulose (CMC) were used for administration per os (0.15 ml per animal, dose 140 mg/kg). A serial tail bleeding protocol was used for the collection of blood samples. Blood samples (10 μl) were collected at selected time points (0.5, 1, 2, 4, 8, 24 hours) in tubes containing 40 μl sodium citrate (0.1 M, pH 4.5) and stored at −80° C. until sample extraction. Samples were prepared for quantification by protein precipitation and evaporation. Amy22 was quantified by LC-MS/MS analysis.
Pharmacokinetic Parameters Using Non-Compartmental Analysis

[6] = test system: pancreatic ductal adenocarcinoma (PDA); assay: Post-mortem gamma counting of 18F-FDG uptake in Pdx1-Cre/KRAS*A mice after monotherapy or combination with Amy22; type: in vivo, mouse; conditions: one month; Gemcitabine 300 mg/kg IP weekly; in combination Amy22 150 mg/kg per os daily
Description: The representative PET/CT images shown were acquired for Pdx1-Cre/KRAS*A mice at the beginning and end of treatment (one month) of pancreatic ductal adenocarcinoma (PDA) using either Gemcitabine alone or a combination of Gemcitabine and Amy22. The scheme used for the treatment was as follows: weekly IP administration of Gemcitabine (300 mg/kg) in both cases and daily administration of AMY22 per os (150 mg/kg) in the combination treatment (cf. FIG. 5).
In some scans, a high-level concentration of ^18F-FDG in the urinary bladder (excretion of the tracer) could be observed. High uptake of radioactivity (unrelated to the presence of tumor) was also noted in the heart.

[7] = mouse, whole blood, po, blood, male C57BL/6N mice, 140 mg/kg per os in 0.5% CMC
[8] = MTT day 3, logit-log linear regression

With `CCc1ccc(C=C2SC(=S)NC2=O)cc1` [10058-F4, [Z,E]-5-[4-ethylbenzylidine]-2-thioxothiazolidin-4-one] as the compound, how does the “inhibition of tumor growth” value [1] read?
The value was “no significant inhibition of tumor growth”.

With `O=C(Nc1c(C(=O)O)cnn1-c1ccccc1)c1cc2nc(-c3ccco3)cc(C(F)(F)Cl)n2n1` [Amy22] as the compound, how does the “survival and condition of treated mice” value ([2]; after 150 mg/kg per os daily for 30 days) read?
The value was “still alive 3 months post-treatment with no evident signs of cachexia”.

And the “standardized uptake value (SUV) of 18F-FDG” value ([2]; at the beginning of treatment)?
The value was 2.87.

What about the “standardized uptake value (SUV) of 18F-FDG” value ([2]; at the end of treatment, 150 mg/kg per os daily for 30 days) of the same compound?
Its value is 1.5.

And the apoptosis in xenografts [3]?
Its apoptosis in xenografts is “induced apoptosis”.

What about the “proliferation index (Ki67 immunohistochemistry)” value ([3]; MiaPaCa2 xenografts, controls 69.9±5.1%) of the same compound?
The value was 15.0±3.3%.

And the IC50 (H015.19 cells; MTT day 3, calculated by extrapolation)?
The IC50 was 1800 µM.

And the viability at 3 days, 0.1 μM ([4]; Amy22 0.1 μM)?
The viability at 3 days, 0.1 μM was 86.3 ± 5.9%.

What about the viability at 3 days, 0.5 μM ([4]; Amy22 0.5 μM) of the same compound?
Its viability at 3 days, 0.5 μM is 84.7 ± 5.7%.

What about the viability at 3 days, 1 μM ([4]; Amy22 1 μM) of the same compound?
Its viability at 3 days, 1 μM is 80 ± 4.1%.

And the viability at 3 days, 5 μM ([4]; Amy22 5 μM)?
Its viability at 3 days, 5 μM is 75.3 ± 8.8%.

What about the viability at 3 days, 10 μM ([4]; Amy22 10 μM) of the same compound?
Its viability at 3 days, 10 μM is 74.6 ± 4.9%.

What about the viability at 3 days, 25 μM ([4]; Amy22 25 μM) of the same compound?
The viability at 3 days, 25 μM was 70.8 ± 5.1%.

What about the viability at 3 days, 50 μM ([4]; Amy22 50 μM) of the same compound?
Its viability at 3 days, 50 μM is 67.8 ± 4%.

What about the viability at 3 days, 100 μM ([4]; Amy22 100 μM) of the same compound?
The viability at 3 days, 100 μM was 61.1 ± 3.8%.

What about the viability at 0.1 µM (TGR-1 cells; Amy22 0.1 μM, day 3, MTT, average ± S.E.M) of the same compound?
The viability at 0.1 µM was 84.4 ± 5%.

What about the viability at 0.5 µM (TGR-1 cells; Amy22 0.5 μM, day 3, MTT, average ± S.E.M) of the same compound?
Its viability at 0.5 µM is 73.7 ± 4%.

And the viability at 1 µM (TGR-1 cells; Amy22 1 μM, day 3, MTT, average ± S.E.M)?
The viability at 1 µM was 67.3 ± 4.1%.

And the viability at 5 µM (TGR-1 cells; Amy22 5 μM, day 3, MTT, average ± S.E.M)?
Its viability at 5 µM is 54.5 ± 4.6%.

And the viability at 10 µM (TGR-1 cells; Amy22 10 μM, day 3, MTT, average ± S.E.M)?
Its viability at 10 µM is 46 ± 2.5%.

What about the viability at 25 µM (TGR-1 cells; Amy22 25 μM, day 3, MTT, average ± S.E.M) of the same compound?
Its viability at 25 µM is 39.9 ± 2.2%.

And the viability at 50 µM (TGR-1 cells; Amy22 50 μM, day 3, MTT, average ± S.E.M)?
The viability at 50 µM was 26.8 ± 4.8%.

And the viability at 100 µM (TGR-1 cells; Amy22 100 μM, day 3, MTT, average ± S.E.M)?
The viability at 100 µM was 19 ± 3.7%.

What about the IC50 (TGR-1 cells) of the same compound?
The IC50 was 5.8 µM.

What about the “Elimination rate constant (ke)” value ([5]; blood, male C57BL/6N mice, 140 mg/kg per os in 0.5% CMC) of the same compound?
The value was 0.2 ± 0.1 h⁻¹.

What about the AUC(0-inf) [5, 7] of the same compound?
Its AUC(0-inf) is 35.4 ± 9.5 µM·h.

What about the Cmax [5, 7] of the same compound?
The Cmax was 6.2 ± 1.1 µM.

And the Tmax [5, 7]?
The Tmax was 1.5 ± 0.5 h.

What about the AUC(0-t) ([5]; mouse, whole blood, po, blood, male C57BL/6N mice, 140 mg/kg per os in 0.5% CMC, read-out: AUC0-24) of the same compound?
The AUC(0-t) was 33.6 ± 8.3 µM·h.

What about the blood concentrations ([5]; up to at least 8 hr post dose, oral 140 mg/kg) of the same compound?
Its blood concentrations is over 1 micro molar.

For `Nc1ccn([C@@H]2O[C@H](CO)[C@@H](O)C2(F)F)c(=O)n1` [Gemcitabine], which “remaining tumor as % of untreated PDA tumors (18F-FDG uptake, gamma counting post-mortem)” value [6] is on record?
Its value is 31%.

Which results are given for `O=C(Nc1ccc(F)cc1)c1cc2nc(-c3ccco3)cc(C(F)(F)Cl)n2n1` [formula (III), reference compound]?
IC50 (H015.19 cells; [8]): 13.4 µM; IC50 (TGR-1 cells): 6.5 µM

For `O=C(c1cc2nc(-c3ccco3)cc(C(F)(F)Cl)n2n1)N1CCNCC1` [formula (IV), reference compound], which IC50 (H015.19 cells; [8]) is on record?
The IC50 was 58.8 µM.

And the IC50 (TGR-1 cells)?
The IC50 was 12.3 µM.
